Data: patent US20210300924A1, “5-[6-[[3-(4,5,6,7-TETRAHYDROPYRAZOLO[4,3-C]PYRIDIN-1-YL)AZETIDIN-1-YL]METHYL]MORPHOLIN-4-YL]QUINOLINE-8-CARBONITRILE DERIVATIVES AND SIMILAR COMPOUNDS AS TLR7-9 ANTAGONISTS FOR TREATING SYSTEMIC LUPUS ERYTHEMATOSUS” (Hoffmann-La Roche Inc., priority 2018, published 2021)
pIC50: −log10 of the molar value.

Target: T1, TLR9 (Homo sapiens, UniProt Q9NR96)
T1 sequence (Q9NR96 26-1032): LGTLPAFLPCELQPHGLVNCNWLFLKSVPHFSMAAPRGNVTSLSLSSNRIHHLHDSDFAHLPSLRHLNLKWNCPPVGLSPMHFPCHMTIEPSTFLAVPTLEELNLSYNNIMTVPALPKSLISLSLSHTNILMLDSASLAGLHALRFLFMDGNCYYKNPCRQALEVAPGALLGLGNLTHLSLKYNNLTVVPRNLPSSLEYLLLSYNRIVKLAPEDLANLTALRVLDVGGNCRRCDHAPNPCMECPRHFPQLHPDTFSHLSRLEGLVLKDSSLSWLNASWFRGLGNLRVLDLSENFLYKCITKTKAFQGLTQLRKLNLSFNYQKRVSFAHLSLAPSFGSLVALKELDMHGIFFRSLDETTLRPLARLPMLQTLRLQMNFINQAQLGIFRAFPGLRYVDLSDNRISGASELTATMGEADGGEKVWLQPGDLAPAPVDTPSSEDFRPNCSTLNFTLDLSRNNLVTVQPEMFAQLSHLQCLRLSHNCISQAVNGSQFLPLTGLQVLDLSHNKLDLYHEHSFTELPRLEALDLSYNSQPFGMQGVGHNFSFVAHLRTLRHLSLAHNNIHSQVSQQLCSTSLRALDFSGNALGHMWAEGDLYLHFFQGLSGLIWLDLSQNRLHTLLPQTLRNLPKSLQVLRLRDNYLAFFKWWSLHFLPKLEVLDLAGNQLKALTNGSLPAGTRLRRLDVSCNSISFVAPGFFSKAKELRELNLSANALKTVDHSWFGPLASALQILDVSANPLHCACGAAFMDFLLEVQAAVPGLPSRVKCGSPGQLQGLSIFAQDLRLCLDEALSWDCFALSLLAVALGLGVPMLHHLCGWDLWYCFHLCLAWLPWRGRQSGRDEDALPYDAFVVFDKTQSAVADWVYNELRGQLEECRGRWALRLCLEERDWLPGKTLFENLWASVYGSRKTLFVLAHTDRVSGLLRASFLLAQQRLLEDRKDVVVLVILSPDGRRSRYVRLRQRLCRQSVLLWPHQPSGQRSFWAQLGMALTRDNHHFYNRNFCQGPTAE
Experiment: HEK293-Blue-hTLR-9 cells assay
Type: cell-based
Design: host or cells: HEK293 (HEK-Blue hTLR9)
Conditions: HEK293-Blue-hTLR9 cells, ODN2006 stimulation, 20 hrs, SEAP reporter; read-out: HEK/hTLR9 IC50
Text: HEK293-Blue-hTLR-9 Cells Assay:
A stable HEK293-Blue-hTLR-9 cell line was purchased from InvivoGen (Cat. #: hkb-htlr9, San Diego, Calif., USA). These cells were originally designed for studying the stimulation of human TLR9 by monitoring the activation of NF-κB. A SEAP (secreted embryonic alkaline phosphatase) reporter gene was placed under the control of the IFN-β minimal promoter fused to five NF-κB and AP-1-binding sites. The SEAP was induced by activating NF-κB and AP-1 via stimulating HEK-Blue hTLR9 cells with TLR9 ligands. Therefore the reporter expression was declined by TLR9 antagonist under the stimulation of a ligand, such as ODN2006 (Cat. #: tlr1-2006-1, Invivogen, San Diego, Calif., USA), for incubation of 20 hrs. The cell culture supernatant SEAP reporter activity was determined using QUANTI-Blue™ kit (Cat. #: rep-01, Invivogen, San Diego, Calif., USA) at a wavelength of 640 nm, a detection medium that turns purple or blue in the presence of alkaline phosphatase.
HEK293-Blue-hTLR9 cells were incubated at a density of 250,000-450,000 cells/mL in a volume of 170 μL in a 96-well plate in Dulbecco's Modified Eagle's medium (DMEM) containing 4.5 g/L glucose, 50 U/mL penicillin, […], 2 mM L-glutamine, 10% (v/v) heat-inactivated fetal bovine serum with addition of 20 μL test compound in a serial dilution in the presence of final DMSO at 1% and 10 μL of 20 uM ODN2006 in above DMEM, perform incubation under 37° C. in a CO2 incubator for 20 hrs. Then 20 μL of the supernatant from each well was incubated with 180 μL Quanti-blue substrate solution at 37° C. for 2 h and the absorbance was read at 620-655 nm using a spectrophotometer. The signaling pathway that TLR9 activation leads to downstream NF-κB activation has been widely accepted, and therefore similar reporter assay was modified for evaluating TLR9 antagonist.

| SMILES | pIC50 |
| --- | --- |
| C[C@@H]1Cc2c(cnn2C2CN(C[C@H]3CN(c4ccc(C#N)c5ncccc45)C[C@@H](C)O3)C2)CN1 [Example 16, 5-[(2R,6S)-2-methyl-6-[[3-[(6R)-6-methyl-4,5,6,7-tetrahydropyrazolo[4,3-c]pyridin-1-yl]azetidin-1-yl]methyl]morpholin-4-yl]quinoline-8-carbonitrile] | 7.11 |
| C[C@@H]1Cc2cn(C3CN(C[C@H]4CN(c5ccc(C#N)c6ncccc56)C[C@@H](C)O4)C3)nc2CN1 (single isomer, unassigned) [Example 30] | 7.24 |
| C[C@@H]1CN(c2ccc(C#N)c3ncccc23)C[C@H](CN2CC(n3cc4c(n3)CNC4)C2)O1 [Example 11, 5-[(2S,6R)-2-[[3-(5,6-dihydro-4H-pyrrolo[3,4-c]pyrazol-2-yl)azetidin-1-yl]methyl]-6-methyl-morpholin-4-yl]quinoline-8-carbonitrile] | 7.31 |
| C[C@@H]1CN(c2ccc(C#N)c3ncccc23)C[C@H](CN2CC(n3ncc4c3CCN[C@H]4C)C2)O1 [Example 22, 5-[(2R,6S)-2-methyl-6-[[3-[(4S)-4-methyl-4,5,6,7-tetrahydropyrazolo[4,3-c]pyridin-1-yl]azetidin-1-yl]methyl]morpholin-4-yl]quinoline-8-carbonitrile] | 7.15 |
